The values below come from patent US12479895B2, “C-terminal CDNF and MANF fragments, pharmaceutical compositions comprising same and uses thereof” (MyNeuroCure Oy, priority 2018, dated 2025).

One experiment relates to ER stressed SCG neurons. As to the kind of experiment: Survival of tunicamycin-treated (ER stressed) SCG sympathetic neurons after microinjection. Type of experiment: cell-based, mice. The following applies: for survived neurons as % compared to neurons grown in the presence of NGF: microinjected into cytoplasm, CDNF (400); for Fold change of survived neurons compared to neurons injected with PBS: data of Table 1 divided by values of PBS. The method in brief:
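Newborn mouse SCG neurons grown 5-6 days with 30 ng/ml NGF, then microinjected with CDNF (FL or C-terminal) plasmids (10 ng/ul, EGFP reporter) or proteins (200 ng/ul, Dextran Texas Red). Tunicamycin (2 μM) added next day. Fluorescent survivors counted blindly after 3 days as % of initial; compared with vector or PBS (ANOVA/Dunnett).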

A further experiment concerns dopamine neurons. In words: Survival of TH-positive dopamine neurons in dissociated midbrain floor cultures. It counts as cell-based, mouse. The following applies: for Fold change of survived neurons compared to neurons grown without growth factors: data of Table 3 divided by values of no factor. In outline: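 Dissociated E13.5 NMRI mouse midbrain floor neurons grown five days in DMEM/F12 with N2, with polypeptides at a range of concentrations, GDNF (100 ng/ml), or nothing. TH-immunopositive neurons were counted by imaging. Values are a percentage of GDNF-maintained TH-positive neurons, as mean ± SEM from at least three independent cultures.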

[1] abbreviates: Table 1B (FIG. 16), exp1, tunicamycin 2 μM, counted after 3 days.
Where [2] appears, read: Table 1B (FIG. 16), exp2, tunicamycin 2 μM, counted after 3 days.
Where [3] appears, read: Table 1B (FIG. 16), exp3, tunicamycin 2 μM, counted after 3 days.
The mark [4] stands for this setting: Table 3B (FIG. 17), AVG, 1 ng/ml, 5 days.
Where [5] appears, read: Table 3B (FIG. 17), AVG, 10 ng/ml, 5 days.
The mark [6] stands for this setting: Table 3B (FIG. 17), AVG, 100 ng/ml, 5 days.
Where [7] appears, read: Table 3B (FIG. 17), AVG, 1000 ng/ml, 5 days.

As for “TLDLASVDLRKMRVAELKQILHSWGEECRASAEKTDYVNLIQELAPKYA (C-CDNF peptide with single amino acid substitution) [pep10]”, the “survived neurons as % compared to neurons grown in the presence of NGF” value (“survived neurons as % … of NGF” below) is 42.46 % NGF in the experiment on ER stressed SCG neurons (setting [1]), 45.16 % NGF in the experiment on ER stressed SCG neurons (setting [2]) and 40.35 % NGF in the experiment with ER stressed SCG neurons (setting [3]). In addition, the “survived neurons as % compared to neurons grown in the presence of GDNF” value (from here on “survived neurons as % … of GDNF”) in the experiment on dopamine neurons (setting [4]) was 54.25 % GDNF; in the experiment on dopamine neurons (setting [5]), 63.09 % GDNF; in the experiment with dopamine neurons (setting [6]), 68.97 % GDNF; in the experiment with dopamine neurons (setting [7]) it was 69.16 % GDNF.
For the sequence “TLDLASVDLRKMRVAELKQILHSWGEECRACAEKTDYVNLIQEPAPKYA (Mutated C-CDNF peptide) [pep13]”, the “survived neurons as % … of NGF” value turned out to be 77.41 % NGF with ER stressed SCG neurons (setting [1]), 72.46 % NGF with ER stressed SCG neurons (setting [2]) and 80.39 % NGF in the experiment with ER stressed SCG neurons (setting [3]). Besides, the “rescue of ER stressed SCG neurons (result in words)” value in the experiment on ER stressed SCG neurons (protein or peptide microinjected into the cytoplasm, tunicamycin 2 μM, living fluorescent neurons counted after 3 days) was “rescue”. For the same sequence, the “survived neurons as % … of GDNF” value with dopamine neurons (setting [4]) amounted to 71.07 % GDNF; in the experiment on dopamine neurons (setting [5]), 86.81 % GDNF; with dopamine neurons (setting [6]), 88.07 % GDNF; with dopamine neurons (setting [7]) it was 85.36 % GDNF. For the same sequence, the “protection of dopaminergic neurons in culture (result in words)” value with dopamine neurons (added to the culture medium, 5 days, TH-positive neurons counted) is “best protective effect”.
For the sequence “TLDLASVDLRKMRVAELKQILHSWGEECRACAEKTDYVNLIQELAPKYA (listed as Homo sapiens) [pep4]”, the “survived neurons as % … of NGF” value in the experiment on ER stressed SCG neurons (Table 1A (FIG. 14), AVG of exp1-2, tunicamycin 2 μM) stood at 79.15 % NGF; in the experiment with ER stressed SCG neurons (Table 1A (FIG. 14), exp1, tunicamycin 2 μM, counted after 3 days) it was 81.25 % NGF; in the experiment with ER stressed SCG neurons (Table 1A (FIG. 14), exp2, tunicamycin 2 μM, counted after 3 days), 77.05 % NGF. Also, the “Fold change of survived neurons compared to neurons injected with PBS” value is 2.16 Fold to PBS in the experiment with ER stressed SCG neurons (Table 2, AVG); 2.37 Fold to PBS in the experiment with ER stressed SCG neurons (Table 2, exp1); 1.94 Fold to PBS with ER stressed SCG neurons (Table 2, exp2). Besides, the “survived neurons as % … of GDNF” value in the experiment with dopamine neurons (Table 3A (FIG. 15), AVG, 1 ng/ml, 5 days) amounted to 69.14 % GDNF; with dopamine neurons (Table 3A (FIG. 15), AVG, 10 ng/ml, 5 days) it was 70.54 % GDNF; in the experiment with dopamine neurons (Table 3A (FIG. 15), AVG, 100 ng/ml, 5 days), 70.14 % GDNF; in the experiment with dopamine neurons (Table 3A (FIG. 15), AVG, 1000 ng/ml, 5 days), 76.27 % GDNF; in the experiment with dopamine neurons (Table 3A (FIG. 15), exp1, 1 ng/ml, 5 days) it was 61.71 % GDNF; with dopamine neurons (Table 3A (FIG. 15), exp1, 10 ng/ml, 5 days), 64.44 % GDNF. Besides, the “survived neurons as % … of GDNF” value in the experiment on dopamine neurons (Table 3A (FIG. 15), exp1, 100 ng/ml, 5 days) is 69.02 % GDNF; in the experiment with dopamine neurons (Table 3A (FIG. 15), exp1, 1000 ng/ml, 5 days), 68.35 % GDNF; in the experiment with dopamine neurons (Table 3A (FIG. 15), exp2, 1 ng/ml, 5 days), 79.99 % GDNF; in the experiment on dopamine neurons (Table 3A (FIG. 15), exp2, 10 ng/ml, 5 days) it was 81.47 % GDNF; in the experiment with dopamine neurons (Table 3A (FIG. 15), exp2, 100 ng/ml, 5 days), 73.24 % GDNF; in the experiment on dopamine neurons (Table 3A (FIG. 15), exp2, 1000 ng/ml, 5 days), 83.39 % GDNF. Further, the “survived neurons as % … of GDNF” value is on record as 65.71 % GDNF in the experiment with dopamine neurons (Table 3A (FIG. 15), exp3, 1 ng/ml, 5 days); 65.71 % GDNF in the experiment on dopamine neurons (Table 3A (FIG. 15), exp3, 10 ng/ml, 5 days); 68.14 % GDNF in the experiment on dopamine neurons (Table 3A (FIG. 15), exp3, 100 ng/ml, 5 days); 77.07 % GDNF in the experiment with dopamine neurons (Table 3A (FIG. 15), exp3, 1000 ng/ml, 5 days). Also, the “Fold change of survived neurons compared to neurons grown without growth factors” value amounted to 1.12 fold in the experiment on dopamine neurons (Table 4, AVG, 1 ng/ml); 1.14 fold with dopamine neurons (Table 4, AVG, 10 ng/ml); 1.14 fold with dopamine neurons (Table 4, AVG, 100 ng/ml); 1.24 fold in the experiment with dopamine neurons (Table 4, AVG, 1000 ng/ml); 1.08 fold in the experiment with dopamine neurons (Table 4, exp1, 1 ng/ml); 1.13 fold in the experiment with dopamine neurons (Table 4, exp1, 10 ng/ml). The “Fold change of survived neurons compared to neurons grown without growth factors” value in the experiment on dopamine neurons (Table 4, exp1, 100 ng/ml) is recorded as 1.21 fold; in the experiment with dopamine neurons (Table 4, exp1, 1000 ng/ml), 1.20 fold; in the experiment on dopamine neurons (Table 4, exp2, 1 ng/ml) it was 1.27 fold; in the experiment with dopamine neurons (Table 4, exp2, 10 ng/ml) it was 1.29 fold; in the experiment with dopamine neurons (Table 4, exp2, 100 ng/ml), 1.16 fold; in the experiment on dopamine neurons (Table 4, exp2, 1000 ng/ml), 1.32 fold. In addition, the “Fold change of survived neurons compared to neurons grown without growth factors” value is 1.01 fold in the experiment with dopamine neurons (Table 4, exp3, 1 ng/ml); 1.01 fold in the experiment on dopamine neurons (Table 4, exp3, 10 ng/ml); 1.05 fold in the experiment with dopamine neurons (Table 4, exp3, 100 ng/ml); 1.19 fold with dopamine neurons (Table 4, exp3, 1000 ng/ml).
